Data published in ChEMBL document CHEMBL3870316, “Design, synthesis and structure-activity relationships of novel 4-phenoxyquinoline derivatives containing 1,2,4-triazolone moiety as c-Met kinase inhibitors” (Eur J Med Chem, 2016).

What was measured:
[1] = species: Homo sapiens; assay: Selectivity ratio of IC50 for VEGFR2 (unknown origin) to IC50 for c-MET (unknown origin)
[2] = Cytotoxicity against c-Met over-expressed human MKN45 cells assessed as cell growth inhibition after 72 hrs by MTT assay; conditions: MKN-45, 72 h
[3] = Cytotoxicity against c-Met over-expressed human H460 cells assessed as cell growth inhibition after 72 hrs by MTT assay; conditions: NCI-H460, 72 h
[4] = Cytotoxicity against c-Met over-expressed human HT-29 cells assessed as cell growth inhibition after 72 hrs by MTT assay; conditions: HT-29, 72 h
[5] = Cytotoxicity against c-Met over-expressed human A549 cells assessed as cell growth inhibition after 72 hrs by MTT assay; conditions: A549, 72 h
[6] = system: MKN-45; assay: Potency index, ratio of foretinib IC50 to compound IC50 for human MKN45 cells; format: functional
[7] = biological target: Epidermal growth factor receptor (Homo sapiens, UniProt P00533); assay: Inhibition of EGFR (unknown origin) after 30 mins by HTRF assay
[8] = biological target: T1, Receptor-type tyrosine-protein kinase FLT3 (Homo sapiens, UniProt P36888); assay: Inhibition of FLT3 (unknown origin) after 30 mins by HTRF assay
T1 sequence (P36888 whole entry): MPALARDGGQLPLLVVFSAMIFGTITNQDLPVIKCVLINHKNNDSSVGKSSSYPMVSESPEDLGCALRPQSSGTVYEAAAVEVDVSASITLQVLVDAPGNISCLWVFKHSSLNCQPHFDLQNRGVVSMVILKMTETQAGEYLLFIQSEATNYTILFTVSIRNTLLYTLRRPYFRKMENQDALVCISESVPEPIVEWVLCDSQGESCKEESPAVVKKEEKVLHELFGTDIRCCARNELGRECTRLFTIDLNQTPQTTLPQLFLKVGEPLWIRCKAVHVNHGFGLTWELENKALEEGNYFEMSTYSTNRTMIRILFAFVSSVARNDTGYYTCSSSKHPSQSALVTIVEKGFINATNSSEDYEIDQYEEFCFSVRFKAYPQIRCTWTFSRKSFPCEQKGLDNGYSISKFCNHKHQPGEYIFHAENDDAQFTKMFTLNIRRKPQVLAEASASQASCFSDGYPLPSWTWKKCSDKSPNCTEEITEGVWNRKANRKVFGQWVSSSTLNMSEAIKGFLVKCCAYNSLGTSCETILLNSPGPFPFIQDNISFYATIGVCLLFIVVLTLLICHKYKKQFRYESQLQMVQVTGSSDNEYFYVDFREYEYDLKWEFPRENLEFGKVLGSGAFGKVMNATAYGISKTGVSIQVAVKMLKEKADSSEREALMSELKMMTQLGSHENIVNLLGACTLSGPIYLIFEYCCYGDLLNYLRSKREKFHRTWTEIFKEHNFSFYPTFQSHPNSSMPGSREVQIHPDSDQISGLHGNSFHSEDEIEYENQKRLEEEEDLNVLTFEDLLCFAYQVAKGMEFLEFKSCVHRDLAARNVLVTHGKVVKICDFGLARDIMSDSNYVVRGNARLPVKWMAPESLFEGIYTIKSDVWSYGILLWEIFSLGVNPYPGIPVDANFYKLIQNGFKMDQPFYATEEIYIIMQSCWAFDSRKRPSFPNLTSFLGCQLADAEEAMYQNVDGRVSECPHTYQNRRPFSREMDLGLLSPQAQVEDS

[9] = biological target: Hepatocyte growth factor receptor (Homo sapiens, UniProt P08581); assay: Inhibition of c-MET (unknown origin) using poly(Glu, Tyr)4:1 as substrate after 30 mins by HTRF assay
[10] = biological target: Platelet-derived growth factor receptor alpha (Homo sapiens, UniProt P16234); assay: Inhibition of PDGFRalpha (unknown origin) after 30 mins by HTRF assay
[11] = system: A549; assay: Potency index, ratio of foretinib IC50 to compound IC50 for human A549 cells; format: functional
[12] = biological target: Mast/stem cell growth factor receptor Kit (Homo sapiens, UniProt P10721); assay: Inhibition of c-Kit (unknown origin) after 30 mins by HTRF assay
[13] = biological target: Macrophage-stimulating protein receptor (Homo sapiens, UniProt Q04912); assay: Inhibition of Ron (unknown origin) after 30 mins by HTRF assay
[14] = biological target: Vascular endothelial growth factor receptor 2 (Homo sapiens, UniProt P35968); assay: Inhibition of VEGFR2 (unknown origin) after 30 mins by HTRF assay
[15] = system: HT-29; assay: Potency index, ratio of foretinib IC50 to compound IC50 for human HT-29 cells; format: functional
[16] = Potency index, ratio of foretinib IC50 to compound IC50 for human H460 cells; format: functional

Hepatocyte growth factor receptor, sequence (P08581 whole entry): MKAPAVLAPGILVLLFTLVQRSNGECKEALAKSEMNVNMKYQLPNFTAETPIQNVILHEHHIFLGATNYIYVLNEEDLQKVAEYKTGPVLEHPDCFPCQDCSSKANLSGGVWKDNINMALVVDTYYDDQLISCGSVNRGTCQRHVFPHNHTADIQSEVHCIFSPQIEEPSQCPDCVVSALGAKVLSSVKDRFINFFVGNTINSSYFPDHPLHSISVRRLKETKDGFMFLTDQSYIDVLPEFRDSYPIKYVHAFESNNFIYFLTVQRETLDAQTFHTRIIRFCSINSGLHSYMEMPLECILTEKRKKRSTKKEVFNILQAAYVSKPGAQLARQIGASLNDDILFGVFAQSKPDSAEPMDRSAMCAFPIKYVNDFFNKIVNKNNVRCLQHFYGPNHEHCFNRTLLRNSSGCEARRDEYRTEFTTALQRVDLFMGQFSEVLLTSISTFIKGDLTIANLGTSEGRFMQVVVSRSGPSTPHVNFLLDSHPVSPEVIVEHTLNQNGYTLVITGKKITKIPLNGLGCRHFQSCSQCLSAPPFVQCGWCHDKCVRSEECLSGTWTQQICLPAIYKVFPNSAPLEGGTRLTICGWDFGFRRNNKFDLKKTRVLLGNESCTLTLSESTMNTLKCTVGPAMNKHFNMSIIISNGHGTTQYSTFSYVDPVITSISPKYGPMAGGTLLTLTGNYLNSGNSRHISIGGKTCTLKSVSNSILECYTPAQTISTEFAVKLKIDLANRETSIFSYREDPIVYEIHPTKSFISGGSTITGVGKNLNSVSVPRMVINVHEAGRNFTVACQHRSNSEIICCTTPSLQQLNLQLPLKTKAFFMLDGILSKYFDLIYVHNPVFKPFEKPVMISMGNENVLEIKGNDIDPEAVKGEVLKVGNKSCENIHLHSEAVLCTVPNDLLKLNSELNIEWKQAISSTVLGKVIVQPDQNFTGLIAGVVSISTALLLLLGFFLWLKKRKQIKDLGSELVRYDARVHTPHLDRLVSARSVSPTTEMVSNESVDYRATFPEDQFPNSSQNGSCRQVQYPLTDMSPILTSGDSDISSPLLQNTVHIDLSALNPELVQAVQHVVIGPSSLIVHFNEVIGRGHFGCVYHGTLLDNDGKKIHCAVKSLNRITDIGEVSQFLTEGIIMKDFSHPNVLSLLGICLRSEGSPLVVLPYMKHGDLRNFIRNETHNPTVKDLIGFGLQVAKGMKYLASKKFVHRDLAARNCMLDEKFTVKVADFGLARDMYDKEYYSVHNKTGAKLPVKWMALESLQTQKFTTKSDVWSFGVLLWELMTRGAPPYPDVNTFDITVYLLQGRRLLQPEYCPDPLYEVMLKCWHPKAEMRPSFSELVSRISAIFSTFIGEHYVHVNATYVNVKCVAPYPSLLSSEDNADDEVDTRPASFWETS
Platelet-derived growth factor receptor alpha, sequence (P16234 whole entry): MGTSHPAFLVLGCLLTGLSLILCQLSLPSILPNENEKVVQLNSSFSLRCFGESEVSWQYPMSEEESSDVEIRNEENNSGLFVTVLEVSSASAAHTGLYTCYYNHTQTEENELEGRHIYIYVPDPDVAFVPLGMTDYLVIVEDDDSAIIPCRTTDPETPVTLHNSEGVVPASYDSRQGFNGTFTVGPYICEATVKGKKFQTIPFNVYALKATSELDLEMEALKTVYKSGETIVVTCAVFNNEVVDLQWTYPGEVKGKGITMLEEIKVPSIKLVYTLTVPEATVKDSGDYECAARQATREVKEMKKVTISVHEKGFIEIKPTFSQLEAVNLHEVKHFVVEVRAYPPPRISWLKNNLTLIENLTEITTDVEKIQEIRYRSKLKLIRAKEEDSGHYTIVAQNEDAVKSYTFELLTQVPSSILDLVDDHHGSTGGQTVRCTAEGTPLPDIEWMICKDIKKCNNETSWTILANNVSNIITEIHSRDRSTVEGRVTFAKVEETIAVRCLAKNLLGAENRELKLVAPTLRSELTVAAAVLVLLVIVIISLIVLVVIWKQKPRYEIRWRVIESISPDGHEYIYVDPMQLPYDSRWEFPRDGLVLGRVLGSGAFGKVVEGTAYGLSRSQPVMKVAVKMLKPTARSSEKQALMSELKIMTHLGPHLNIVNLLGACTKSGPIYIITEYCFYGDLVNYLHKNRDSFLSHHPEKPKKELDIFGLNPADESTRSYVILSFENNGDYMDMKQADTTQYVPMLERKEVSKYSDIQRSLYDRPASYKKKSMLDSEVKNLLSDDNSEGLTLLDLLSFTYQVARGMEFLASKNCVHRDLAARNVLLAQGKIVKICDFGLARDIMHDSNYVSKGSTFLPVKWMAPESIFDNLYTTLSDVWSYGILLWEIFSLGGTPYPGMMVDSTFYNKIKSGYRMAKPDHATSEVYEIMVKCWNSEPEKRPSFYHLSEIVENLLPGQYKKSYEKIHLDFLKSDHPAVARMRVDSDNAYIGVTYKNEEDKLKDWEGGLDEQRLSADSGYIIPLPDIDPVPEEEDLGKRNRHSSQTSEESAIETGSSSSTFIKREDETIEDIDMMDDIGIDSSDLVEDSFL
Vascular endothelial growth factor receptor 2, sequence (P35968 whole entry): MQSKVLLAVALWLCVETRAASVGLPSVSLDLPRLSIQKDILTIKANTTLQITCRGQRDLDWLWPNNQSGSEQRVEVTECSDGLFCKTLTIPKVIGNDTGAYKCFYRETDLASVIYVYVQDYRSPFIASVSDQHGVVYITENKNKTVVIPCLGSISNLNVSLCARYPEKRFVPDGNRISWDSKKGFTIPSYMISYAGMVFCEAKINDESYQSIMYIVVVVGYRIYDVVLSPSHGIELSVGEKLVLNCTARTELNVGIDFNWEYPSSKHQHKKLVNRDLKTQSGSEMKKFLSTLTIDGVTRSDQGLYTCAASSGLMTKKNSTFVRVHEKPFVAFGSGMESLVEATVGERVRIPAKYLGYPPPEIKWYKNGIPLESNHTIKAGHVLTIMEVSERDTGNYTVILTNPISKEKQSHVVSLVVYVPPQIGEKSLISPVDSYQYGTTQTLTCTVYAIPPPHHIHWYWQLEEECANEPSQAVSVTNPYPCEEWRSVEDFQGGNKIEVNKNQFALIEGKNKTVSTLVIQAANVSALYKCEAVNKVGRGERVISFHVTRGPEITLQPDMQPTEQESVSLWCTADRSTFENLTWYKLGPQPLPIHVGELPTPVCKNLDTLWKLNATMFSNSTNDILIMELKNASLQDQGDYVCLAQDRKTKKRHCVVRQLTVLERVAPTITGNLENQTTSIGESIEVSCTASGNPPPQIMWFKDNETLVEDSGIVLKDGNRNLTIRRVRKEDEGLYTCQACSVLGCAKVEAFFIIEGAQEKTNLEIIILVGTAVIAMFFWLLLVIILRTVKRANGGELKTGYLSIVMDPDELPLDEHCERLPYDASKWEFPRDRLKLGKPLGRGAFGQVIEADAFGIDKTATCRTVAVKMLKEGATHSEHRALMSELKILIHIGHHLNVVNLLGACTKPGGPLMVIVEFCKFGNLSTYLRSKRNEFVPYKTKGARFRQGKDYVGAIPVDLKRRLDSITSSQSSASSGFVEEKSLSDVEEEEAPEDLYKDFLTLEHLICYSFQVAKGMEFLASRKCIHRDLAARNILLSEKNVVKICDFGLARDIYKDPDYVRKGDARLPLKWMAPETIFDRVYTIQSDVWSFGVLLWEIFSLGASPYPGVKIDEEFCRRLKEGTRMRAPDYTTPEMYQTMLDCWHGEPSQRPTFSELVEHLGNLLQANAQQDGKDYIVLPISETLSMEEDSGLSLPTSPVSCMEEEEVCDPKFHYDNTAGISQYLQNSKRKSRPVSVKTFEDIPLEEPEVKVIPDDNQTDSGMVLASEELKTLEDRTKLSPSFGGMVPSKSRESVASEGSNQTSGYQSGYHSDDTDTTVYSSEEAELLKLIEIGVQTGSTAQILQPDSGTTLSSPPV
Mast/stem cell growth factor receptor Kit, sequence (P10721 whole entry): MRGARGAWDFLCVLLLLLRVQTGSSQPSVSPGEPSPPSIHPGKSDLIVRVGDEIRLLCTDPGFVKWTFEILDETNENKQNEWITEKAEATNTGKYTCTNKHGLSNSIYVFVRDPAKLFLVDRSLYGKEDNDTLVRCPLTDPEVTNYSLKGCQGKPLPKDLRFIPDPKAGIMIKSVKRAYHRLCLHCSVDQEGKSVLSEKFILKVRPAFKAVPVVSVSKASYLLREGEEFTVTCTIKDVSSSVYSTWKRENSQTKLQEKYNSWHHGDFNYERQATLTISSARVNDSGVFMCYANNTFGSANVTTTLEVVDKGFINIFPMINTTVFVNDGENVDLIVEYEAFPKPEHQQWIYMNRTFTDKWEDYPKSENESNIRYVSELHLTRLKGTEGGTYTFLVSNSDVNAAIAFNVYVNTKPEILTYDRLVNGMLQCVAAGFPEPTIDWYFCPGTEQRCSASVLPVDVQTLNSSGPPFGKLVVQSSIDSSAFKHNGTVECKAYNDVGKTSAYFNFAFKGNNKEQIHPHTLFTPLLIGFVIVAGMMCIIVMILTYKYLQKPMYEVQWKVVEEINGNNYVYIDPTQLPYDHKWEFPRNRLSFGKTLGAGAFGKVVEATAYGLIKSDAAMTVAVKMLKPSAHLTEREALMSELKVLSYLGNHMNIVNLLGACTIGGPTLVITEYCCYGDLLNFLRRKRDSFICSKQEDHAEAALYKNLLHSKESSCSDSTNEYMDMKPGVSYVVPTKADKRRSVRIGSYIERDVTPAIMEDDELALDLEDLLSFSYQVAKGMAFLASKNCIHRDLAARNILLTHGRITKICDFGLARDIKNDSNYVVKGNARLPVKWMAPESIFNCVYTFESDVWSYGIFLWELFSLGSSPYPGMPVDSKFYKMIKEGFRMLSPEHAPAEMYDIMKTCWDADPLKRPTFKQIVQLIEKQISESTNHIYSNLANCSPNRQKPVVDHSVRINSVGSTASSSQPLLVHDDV

In the case of `COc1cc2c(Oc3ccc(N/C=C4\C(=O)N(c5ccccc5C(F)(F)F)N=C4C)cc3F)ccnc2cc1OCCCN1CCOCC1`, the Ratio IC50 [1] is reported as 172.
Compound `COc1cc2c(Oc3ccc(NC(=O)c4cn(-c5ccccc5Cl)nn4)cc3F)ccnc2cc1OCCCN1CCCCC1` has a Ratio IC50 [1] of 53.
Compound `COc1cc2c(Oc3ccc(NC(=O)c4nn(-c5ccccc5OC(F)(F)F)c(=O)n4C4CC4)cc3F)ccnc2cc1OCCCN1CCC(C)CC1` has an IC50 [2] of 100 nM, an IC50 [3] of 240 nM and an IC50 [4] of 110 nM. The IC50 [5] was 120 nM.
For `COc1cc2c(Oc3ccc(NC(=O)c4nn(-c5cccc(F)c5)c(=O)n4C)cc3F)ccnc2cc1OCCCN1CCN(C)CC1`, the IC50 [2] was 410 nM, the IC50 [3] was 310 nM and the IC50 [4] was 290 nM. The IC50 [5] was 280 nM.
`COc1cc2c(Oc3ccc(NC(=O)c4nn(-c5ccccc5OC(F)(F)F)c(=O)n4C)cc3F)ccnc2cc1OCCCN1CCC(C)CC1` gave an IC50 [2] of 95 nM, an IC50 [3] of 350 nM and an IC50 [4] of 190 nM. It also gave an IC50 [5] of 180 nM.
With `COc1ccc(-n2nc(C(=O)Nc3ccc(Oc4ccnc5cc(OCCCN6CCC(C)CC6)c(OC)cc45)c(F)c3)n(C)c2=O)cc1` the IC50 [2] was 590 nM, the IC50 [3] was 2400 nM and the IC50 [4] was 1430 nM. For the same compound, the IC50 [5] was 620 nM.
For `COc1cc2c(Oc3ccc(NC(=O)c4nn(-c5c(C)cccc5C)c(=O)n4C)cc3F)ccnc2cc1OCCCN1CCN(C)CC1`, the IC50 [2] was 1660 nM, the IC50 [3] was 2400 nM and the IC50 [4] was 1260 nM. For the same compound, the IC50 [5] was 980 nM.
With `COc1cc2c(Oc3ccc(NC(=O)c4nn(-c5ccc(Cl)cc5Cl)c(=O)n4C)cc3F)ccnc2cc1OCCCN1CCC(C)CC1` the IC50 [2] was 400 nM, the IC50 [3] was 450 nM and the IC50 [4] was 180 nM. For the same compound, the IC50 [5] was 350 nM.
For `COc1cc2c(Oc3ccc(NC(=O)c4nn(-c5ccc(OC(F)F)cc5)c(=O)n4C)cc3F)ccnc2cc1OCCCN1CCCCC1`, the IC50 [2] was 130 nM, the IC50 [3] was 310 nM and the IC50 [4] was 280 nM. It also gave an IC50 [5] of 220 nM.
For `COc1cc2c(Oc3ccc(NC(=O)c4nn(-c5ccc(F)cc5)c(=O)n4C)cc3F)ccnc2cc1OCCCN1CCN(C)CC1`, the IC50 [2] was 350 nM, the IC50 [3] was 370 nM and the IC50 [4] was 250 nM. For the same compound, the IC50 [5] was 240 nM.
`COc1cc2c(Oc3ccc(NC(=O)c4nn(-c5ccc(OC(F)F)cc5)c(=O)n4C)cc3F)ccnc2cc1OCCCN1CCN(C)CC1` gave an IC50 [2] of 140 nM, an IC50 [3] of 290 nM and an IC50 [4] of 220 nM. For the same compound, the IC50 [5] was 290 nM.
`COc1cc2c(Oc3ccc(NC(=O)c4nn(-c5ccccc5OC(F)(F)F)c(=O)n4C)cc3F)ccnc2cc1OCCCN1CCCCC1` showed an IC50 [2] of 80 nM, an IC50 [3] of 290 nM and an IC50 [4] of 210 nM. The IC50 [5] was 130 nM.
`COc1cc2c(Oc3ccc(NC(=O)c4nn(-c5ccccc5Cl)c(=O)n4C4CC4)cc3F)ccnc2cc1OCCCN1CCN(C)CC1` showed an IC50 [2] of 63 nM, an IC50 [3] of 230 nM and an IC50 [4] of 190 nM. For the same compound, the IC50 [5] was 130 nM.
For `COc1cc2c(Oc3ccc(NC(=O)c4nn(-c5ccc(F)cc5)c(=O)n4C)cc3F)ccnc2cc1OCCCN1CCC(C)CC1`, the IC50 [2] was 310 nM, the IC50 [3] was 240 nM and the IC50 [4] was 330 nM. It also gave an IC50 [5] of 410 nM.
Work on `COc1cc2c(Oc3ccc(NC(=O)c4nn(-c5ccccc5)c(=O)n4C)cc3F)ccnc2cc1OCCCN1CCOCC1` yielded an IC50 [2] of 950 nM, an IC50 [3] of 1700 nM and an IC50 [4] of 1460 nM. The IC50 [5] was 700 nM.
For `COc1cc2c(Oc3ccc(NC(=O)c4nn(-c5ccccc5Cl)c(=O)n4C)cc3F)ccnc2cc1OCCCN1CCCCC1`, the IC50 [2] was 220 nM, the IC50 [3] was 300 nM and the IC50 [4] was 180 nM. The IC50 [5] was 190 nM.
For `COc1cc2c(Oc3ccc(NC(=O)c4nn(-c5ccccc5F)c(=O)n4C)cc3F)ccnc2cc1OCCCN1CCN(C)CC1`, the “Ratio IC50” value [6] was 1.1 - 2.3, the IC50 [7] was over 10000 nM and the IC50 [8] was 8.19 nM. The IC50 [9] was 1.57 nM, the IC50 [10] was 95.2 nM and the “Ratio IC50” value [11] was 1.1 - 2.3. It also gave an IC50 [2] of 30 nM, an IC50 [3] of 140 nM and an IC50 [12] of 3.38 nM. It also gave a Ratio IC50 [1] of 306, an IC50 [4] of 80 nM and an IC50 [13] of 141 nM. The IC50 [14] was 480 nM, the IC50 [5] was 110 nM and the “Ratio IC50” value [15] was 1.1 - 2.3. The “Ratio IC50” value [16] was 1.1 - 2.3.
`COc1cc2c(Oc3ccc(NC(=O)c4nn(-c5ccc(F)cc5)c(=O)n4C)cc3F)ccnc2cc1OCCCN1CCCCC1` showed an IC50 [2] of 400 nM, an IC50 [3] of 580 nM and an IC50 [4] of 400 nM. The IC50 [5] was 350 nM.
Work on `COc1cc2c(Oc3ccc(NC(=O)c4nn(-c5ccccc5OC(F)(F)F)c(=O)n4C)cc3F)ccnc2cc1OCCCN1CCN(C)CC1` yielded an IC50 [2] of 20 nM, an IC50 [3] of 200 nM and an IC50 [4] of 180 nM. For the same compound, the IC50 [5] was 90 nM.
`COc1cc2c(Oc3ccc(NC(=O)c4nn(-c5ccccc5)c(=O)n4C)cc3F)ccnc2cc1OCCCN1CCN(C)CC1` gave an IC50 [2] of 560 nM, an IC50 [3] of 620 nM and an IC50 [4] of 650 nM. For the same compound, the IC50 [5] was 460 nM.
With `COc1cc2c(Oc3ccc(NC(=O)c4nn(-c5ccc(F)cc5)c(=O)n4C)cc3F)ccnc2cc1OCCCN1CCOCC1` the IC50 [2] was 640 nM, the IC50 [3] was 810 nM and the IC50 [4] was 1230 nM. It also gave an IC50 [5] of 400 nM.
For `COc1cc2c(Oc3ccc(NC(=O)c4nn(-c5cccc(F)c5)c(=O)n4C)cc3F)ccnc2cc1OCCCN1CCC(C)CC1`, the IC50 [2] was 200 nM, the IC50 [3] was 290 nM and the IC50 [4] was 400 nM. For the same compound, the IC50 [5] was 440 nM.
For `COc1cc2c(Oc3ccc(NC(=O)c4nn(-c5c(C)cccc5C)c(=O)n4C)cc3F)ccnc2cc1OCCCN1CCC(C)CC1`, the IC50 [2] was 2230 nM, the IC50 [3] was 3220 nM and the IC50 [4] was 2680 nM. For the same compound, the IC50 [5] was 4550 nM.
In the case of `CCn1c(C(=O)Nc2ccc(Oc3ccnc4cc(OCCCN5CCC(C)CC5)c(OC)cc34)c(F)c2)nn(-c2ccccc2OC(F)(F)F)c1=O`, the IC50 [2] is reported as 87 nM, the IC50 [3] is reported as 200 nM and the IC50 [4] is reported as 160 nM. It also gave an IC50 [5] of 220 nM.
